Laboratory results reported in the supplement of paper PMC11208160.
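Note: IS621 recombinase and bridge RNA in Escherichia coli cells.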

Assay: recombinant barcode read abundance after kanamycin selection (control-corrected) (log10(CPM+1)); higher = more efficient recombination; sequences stand for … in AGTGCAGAGAAAATCGGCCAGTTTTCTCTGCCTGCAGTCCGCATGCCGT…AGATTTATGCAGCGGACTGCCTTTCTCCCAAAGTGATAAACCGGACAGTATCATGGACCGGTTTTCCCGGTAATCCGTATTTGCAAGGTTGGTTTCACT; site = the 11-nt target
How it was run: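 In a pooled screen in E. coli, targets were paired with target-binding loops of the IS621 bridge RNA. Each oligo carried a promoter, a target, a barcode and the first 104 bridge RNA bases driven by J23119, and was Gibson-cloned into a vector holding the remaining 73 bp and a T7-inducible recombinase before co-electroporation with a donor plasmid. Duplicate platings went onto chloramphenicol/ampicillin LB agar as the control or onto chloramphenicol/ampicillin/kanamycin with 0.1 mM IPTG. Recombination efficiency is the averaged, control-corrected count per million of barcodes at recombinant junctions, given as log10(CPM+1).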
With “AGGTTCCCTTGGGTTCTAACCTGTTGCTA (site AGGTTCCCTTA)” the “recombinant barcode read abundance (log10)” value was 1.32.
In the case of “AGGTTCCCTTGGGTTCTAACCTGTTGCTT (site AGGTTCCCTAA)”, the “recombinant barcode read abundance (log10)” value is reported as 1.41.
With “AGGTTCCCTTGGGTTCTAACCTGTTGCTT (site AGGTTCCCTCA)” the “recombinant barcode read abundance (log10)” value was 0.0899.
In the case of “AGGTTCCCTTGGGTTCTAACCTGTTGCTT (site AGGTTCCCTGA)”, the “recombinant barcode read abundance (log10)” value is reported as 0.621.
For “AGGTTCCCTTGGGTTCTAACCTGTTGCTT (site AGGTTCCCTTA)”, the “recombinant barcode read abundance (log10)” value was 0.183.
With “AGGTTTGCTTGGGTTCTAACCTGTTGCCT (site AGGTATGCTAG)” the “recombinant barcode read abundance (log10)” value was 0.168.
With “AGGTTTGCTTGGGTTCTAACCTGTTGCCT (site AGGTCTGCTAG)” the “recombinant barcode read abundance (log10)” value was 0.471.
With “AGGTTTGCTTGGGTTCTAACCTGTTGCCT (site AGGTGTGCTAG)” the “recombinant barcode read abundance (log10)” value was 0.018.
For “AGGTTTGCTTGGGTTCTAACCTGTTGCCT (site AGGTTTGCTAG)”, the “recombinant barcode read abundance (log10)” value was 0.0479.
For “AGGTTTGCTTGGGTTCTAACCTGTTGCTT (site AGGTTTGCTAA)”, the “recombinant barcode read abundance (log10)” value was 0.00886.
With “AGGTTTGCTTGGGTTCTAACCTGTTGCTT (site GTCACAACTCG)” the “recombinant barcode read abundance (log10)” value was 0.101.
With “AGTACGCCTTGGGTTCTAACCTGTTGCCT (site AGTACGCCTAG)” the “recombinant barcode read abundance (log10)” value was 0.0474.
With “AGTACGCCTTGGGTTCTAACCTGTTGCCT (site TGAACGCCTAG)” the “recombinant barcode read abundance (log10)” value was 0.07.
In the case of “AGTAGAACTTGGGTTCTAACCTGTTGCCT (site AGTAGAACTAG)”, the “recombinant barcode read abundance (log10)” value is reported as 0.387.
With “AGTAGAACTTGGGTTCTAACCTGTTGCCT (site CGTAGAGCTAG)” the “recombinant barcode read abundance (log10)” value was 0.172.
With “AGTAGGACTTGGGTTCTAACCTGTTGCCT (site AGTAGGACTAG)” the “recombinant barcode read abundance (log10)” value was 0.242.
In the case of “AGTAGGACTTGGGTTCTAACCTGTTGCCT (site CGTAGGACTAG)”, the “recombinant barcode read abundance (log10)” value is reported as 0.
In the case of “AGTAGGACTTGGGTTCTAACCTGTTGCCT (site GGTAGGACTAG)”, the “recombinant barcode read abundance (log10)” value is reported as 0.0674.
With “AGTAGGACTTGGGTTCTAACCTGTTGCCT (site TGTAGGACTAG)” the “recombinant barcode read abundance (log10)” value was 0.213.
For “AGTAGTTCTTGGGTTCTAACCTGTTGCAG (site AGTAGTTCTCT)”, the “recombinant barcode read abundance (log10)” value was 0.683.
With “AGTAGTTCTTGGGTTCTAACCTGTTGCAG (site CTCGTAGCTAG)” the “recombinant barcode read abundance (log10)” value was 0.104.
In the case of “AGTCAAACTTGGGTTCTAACCTGTTGCCT (site AGTCAAACTAG)”, the “recombinant barcode read abundance (log10)” value is reported as 0.157.
In the case of “AGTCAAACTTGGGTTCTAACCTGTTGCCT (site AGTCATACTAG)”, the “recombinant barcode read abundance (log10)” value is reported as 0.141.
With “AGTCACACTTGGGTTCTAACCTGTTGCTA (site AGTCACACTCA)” the “recombinant barcode read abundance (log10)” value was 0.179.
For “AGTCACACTTGGGTTCTAACCTGTTGCTA (site AGTCACACTTA)”, the “recombinant barcode read abundance (log10)” value was 1.48.
With “AGTCAGTCTTGGGTTCTAACCTGTTGCGT (site AGTCAGTCTAC)” the “recombinant barcode read abundance (log10)” value was 2.33.
For “AGTCAGTCTTGGGTTCTAACCTGTTGCGT (site AGTCATTCTAT)”, the “recombinant barcode read abundance (log10)” value was 0.0526.
In the case of “AGTCATACTTGGGTTCTAACCTGTTGCCT (site AGTCAAACTAG)”, the “recombinant barcode read abundance (log10)” value is reported as 0.
With “AGTCATACTTGGGTTCTAACCTGTTGCCT (site AGTCATACTAG)” the “recombinant barcode read abundance (log10)” value was 0.232.
With “AGTCATCCTTGGGTTCTAACCTGTTGCCT (site AGTCATACTAT)” the “recombinant barcode read abundance (log10)” value was 0.0998.
For “AGTCATCCTTGGGTTCTAACCTGTTGCCT (site AGTCATCCTAG)”, the “recombinant barcode read abundance (log10)” value was 0.667.
With “AGTCCTGCTTGGGTTCTAACCTGTTGCCT (site AGTCCTGCTAG)” the “recombinant barcode read abundance (log10)” value was 0.722.
With “AGTCCTGCTTGGGTTCTAACCTGTTGCCT (site CGTCCTGCTAG)” the “recombinant barcode read abundance (log10)” value was 0.072.
In the case of “AGTCCTGCTTGGGTTCTAACCTGTTGCCT (site GGTCCTGCTAG)”, the “recombinant barcode read abundance (log10)” value is reported as 0.154.
With “AGTCCTGCTTGGGTTCTAACCTGTTGCCT (site TGTCCTGCTAG)” the “recombinant barcode read abundance (log10)” value was 0.0318.
In the case of “AGTCGATCTTGGGTTCTAACCTGTTGCTT (site ACTCGATCTAG)”, the “recombinant barcode read abundance (log10)” value is reported as 0.0101.
With “AGTCGATCTTGGGTTCTAACCTGTTGCTT (site AGTCGATCTAA)” the “recombinant barcode read abundance (log10)” value was 0.496.
In the case of “AGTCGGCCTTGGGTTCTAACCTGTTGCCT (site AGTCGGCCTAG)”, the “recombinant barcode read abundance (log10)” value is reported as 0.129.
In the case of “AGTCGGCCTTGGGTTCTAACCTGTTGCCT (site ATTCGGCCTAG)”, the “recombinant barcode read abundance (log10)” value is reported as 0.228.
With “AGTCGGTCTTGGGTTCTAACCTGTTGCAT (site AGTCGGTCTAT)” the “recombinant barcode read abundance (log10)” value was 0.813.
For “AGTCGGTCTTGGGTTCTAACCTGTTGCAT (site GGTCCGTCTAT)”, the “recombinant barcode read abundance (log10)” value was 0.0825.
For “AGTCTACCTTGGGTTCTAACCTGTTGCTT (site AGTCTACCTAA)”, the “recombinant barcode read abundance (log10)” value was 0.331.
In the case of “AGTCTACCTTGGGTTCTAACCTGTTGCTT (site CGTCTACCTAA)”, the “recombinant barcode read abundance (log10)” value is reported as 0.0324.
With “AGTCTAGCTTGGGTTCTAACCTGTTGCCT (site AGTCTAGCTAG)” the “recombinant barcode read abundance (log10)” value was 0.0325.
In the case of “AGTCTAGCTTGGGTTCTAACCTGTTGCCT (site AGTCTAGCTCG)”, the “recombinant barcode read abundance (log10)” value is reported as 0.692.
In the case of “AGTCTAGCTTGGGTTCTAACCTGTTGCCT (site AGTCTAGCTGG)”, the “recombinant barcode read abundance (log10)” value is reported as 0.141.
For “AGTCTAGCTTGGGTTCTAACCTGTTGCCT (site AGTCTAGCTTG)”, the “recombinant barcode read abundance (log10)” value was 0.0207.
In the case of “AGTCTAGCTTGGGTTCTAACCTGTTGCTA (site AGTCTAGCTGA)”, the “recombinant barcode read abundance (log10)” value is reported as 0.166.
With “AGTCTAGCTTGGGTTCTAACCTGTTGCTA (site AGTCTAGCTTA)” the “recombinant barcode read abundance (log10)” value was 0.175.
For “AGTGAGACTTGGGTTCTAACCTGTTGCGG (site ACCGAGACTCC)”, the “recombinant barcode read abundance (log10)” value was 1.09.
For “AGTGAGACTTGGGTTCTAACCTGTTGCGG (site AGTGAGACTCC)”, the “recombinant barcode read abundance (log10)” value was 2.99.
With “AGTGCGCCTTGGGTTCTAACCTGTTGCTA (site AGTGCGCCTTA)” the “recombinant barcode read abundance (log10)” value was 0.341.
In the case of “AGTGCGCCTTGGGTTCTAACCTGTTGCTA (site AGTTCGCCTTA)”, the “recombinant barcode read abundance (log10)” value is reported as 0.29.
With “AGTGTCGCTTGGGTTCTAACCTGTTGCGG (site AGTATCGCTCC)” the “recombinant barcode read abundance (log10)” value was 0.96.
For “AGTGTCGCTTGGGTTCTAACCTGTTGCGG (site AGTCTCGCTCC)”, the “recombinant barcode read abundance (log10)” value was 0.0162.
In the case of “AGTGTCGCTTGGGTTCTAACCTGTTGCGG (site AGTGTCGCTCC)”, the “recombinant barcode read abundance (log10)” value is reported as 1.6.
For “AGTGTCGCTTGGGTTCTAACCTGTTGCGG (site AGTTTCGCTCC)”, the “recombinant barcode read abundance (log10)” value was 0.301.
With “AGTTCTCCTTGGGTTCTAACCTGTTGCCT (site AGTTCTCCTAG)” the “recombinant barcode read abundance (log10)” value was 0.0504.
With “AGTTCTCCTTGGGTTCTAACCTGTTGCCT (site CGTTCTCCTAG)” the “recombinant barcode read abundance (log10)” value was 0.415.
With “AGTTCTCCTTGGGTTCTAACCTGTTGCCT (site GGTTCTCCTAG)” the “recombinant barcode read abundance (log10)” value was 0.207.
For “AGTTCTCCTTGGGTTCTAACCTGTTGCCT (site TGTTCTCCTAG)”, the “recombinant barcode read abundance (log10)” value was 0.456.
With “AGTTGCACTTGGGTTCTAACCTGTTGCCT (site AGTTACACTAG)” the “recombinant barcode read abundance (log10)” value was 0.14.
With “AGTTGCACTTGGGTTCTAACCTGTTGCCT (site AGTTCCACTAG)” the “recombinant barcode read abundance (log10)” value was 0.11.
With “AGTTGCACTTGGGTTCTAACCTGTTGCCT (site AGTTGCACTAG)” the “recombinant barcode read abundance (log10)” value was 0.423.
In the case of “AGTTGCACTTGGGTTCTAACCTGTTGCCT (site AGTTTCACTAG)”, the “recombinant barcode read abundance (log10)” value is reported as 0.0516.
For “AGTTTAACTTGGGTTCTAACCTGTTGCAC (site AGTTTAACTGT)”, the “recombinant barcode read abundance (log10)” value was 0.0458.
With “AGTTTAACTTGGGTTCTAACCTGTTGCAC (site GTCGGTCCTCG)” the “recombinant barcode read abundance (log10)” value was 0.258.
With “ATAAAAGCTTGGGTTCTAACCTGTTGCCT (site ATAAAAGCTAG)” the “recombinant barcode read abundance (log10)” value was 1.5.
With “ATAAAAGCTTGGGTTCTAACCTGTTGCCT (site ATAACAGCTAG)” the “recombinant barcode read abundance (log10)” value was 0.0538.
For “ATAAAAGCTTGGGTTCTAACCTGTTGCCT (site ATAAGAGCTAG)”, the “recombinant barcode read abundance (log10)” value was 0.172.
In the case of “ATAAAAGCTTGGGTTCTAACCTGTTGCCT (site ATAATAGCTAG)”, the “recombinant barcode read abundance (log10)” value is reported as 0.59.
In the case of “ATAAACCCTTGGGTTCTAACCTGTTGCAT (site AGAATCCCTAT)”, the “recombinant barcode read abundance (log10)” value is reported as 0.324.
In the case of “ATAAACCCTTGGGTTCTAACCTGTTGCAT (site ATAAACCCTAT)”, the “recombinant barcode read abundance (log10)” value is reported as 2.4.
For “ATAACCTCTTGGGTTCTAACCTGTTGCCT (site ATAACCTCTAG)”, the “recombinant barcode read abundance (log10)” value was 2.
For “ATAACCTCTTGGGTTCTAACCTGTTGCCT (site GAGGTGCCTCT)”, the “recombinant barcode read abundance (log10)” value was 0.
In the case of “ATAAGACCTTGGGTTCTAACCTGTTGCCT (site ATAAGACCTAG)”, the “recombinant barcode read abundance (log10)” value is reported as 2.24.
In the case of “ATAAGACCTTGGGTTCTAACCTGTTGCCT (site ATGAGAGCTAG)”, the “recombinant barcode read abundance (log10)” value is reported as 0.229.
